Experimental data from patent US20220218679A1, “NOVEL COMPOUNDS AND PHARMACEUTICAL COMPOSITIONS THEREOF FOR THE TREATMENT OF INFLAMMATORY DISORDERS” (Galapagos NV, priority 2019, published 2022).

Experiments:
human IRAK-4 = biological target: T1, human IRAK-4 (Homo sapiens, UniProt Q9NWZ3); assay: Phosphorylation IC50 determination for human IRAK-4 (ADP-Glo kinase assay); assay type: biochemical; details: RIP140 substrate, Km ATP, read-out: IRAK4 IC50
T1 construct: purchased Carna Biosciences 09 145
T1 sequence (Q9NWZ3 1-460): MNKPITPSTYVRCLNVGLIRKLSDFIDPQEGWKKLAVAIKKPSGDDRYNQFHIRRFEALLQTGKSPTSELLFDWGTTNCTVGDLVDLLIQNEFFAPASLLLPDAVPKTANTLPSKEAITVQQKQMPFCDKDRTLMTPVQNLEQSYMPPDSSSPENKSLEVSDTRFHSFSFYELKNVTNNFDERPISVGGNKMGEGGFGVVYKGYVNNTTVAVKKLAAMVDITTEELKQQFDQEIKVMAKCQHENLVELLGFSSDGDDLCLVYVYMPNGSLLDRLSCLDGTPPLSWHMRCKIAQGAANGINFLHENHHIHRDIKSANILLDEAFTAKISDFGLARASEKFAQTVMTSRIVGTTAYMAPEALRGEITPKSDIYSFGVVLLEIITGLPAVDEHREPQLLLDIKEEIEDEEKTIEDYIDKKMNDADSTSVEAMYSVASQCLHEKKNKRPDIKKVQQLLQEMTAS
Method: 3.1. Phosphorylation IC50 Determination for Human IRAK-4
The phosphorylation of the substrate RIP140 (SEQ IDi1) by IRAK4 at Km ATP was detected with the ADP-Glo Kinase Assay (Promega, Cat #V9103), a luminescent kinase assay which measures the ADP formed from a kinase reaction. (Zegzouti et al., 2009) In a second step the kinase reaction is terminated and all the remaining ATP was depleted. In a final step the ADP was converted into ATP and this newly synthesized ATP was measured by using a luciferase/luciferin reaction with a luminescent reader. The luminescent signal positively correlated with kinase activity, in particular kinase inhibition giving a decrease of the luminescent signal.
For the semi-automated assay, the positive control (100% inhibition) was prepared by diluting 10 mM staurosporine stock mixture (20 μL) in water (3.8 mL) and DMSO (180 μL), thus resulting in a […] staurosporine solution at 1% DMSO (final concentration after further dilution in the kinase reaction).
For the automated assay, no pre-dilution of the 10 mM staurosporine stock was made. 10 mM staurosporine was spotted directly in the assay plate using acoustic dispensing and complemented with DMSO to result in a similar final concentration as mentioned above.
For the semi-automated assay, the negative control (0% inhibition) was prepared by mixing water (3.8 mL) and DMSO (200 μL) resulting in a final concentration of 1% DMSO after further dilution in the kinase reaction. For the automated assay no pre-dilution of DMSO was done. 100% DMSO was spotted directly on the assay plate.
The assay buffer solution was prepared at a concentration corresponding to 5 fold the final (most diluted) assay concentration by mixing a solution of 125 mM TRIS pH 7.5+0.05% Triton X-100+2.5 mM EGTA (5.27 mL) with 1M MgCl2 (72 μL), 1M DTT (57.6 μL), and 200 mM MnCl2 (360 μL).
For example, for the semi-automated method, the enzyme-substrate mixture was prepared by mixing water (3999 μL), assay buffer solution (1380 μL), 1 mM RIP140 (138 μL—SEQ ID1), and 200 ng/mL IRAK 4 (3.45 μL Carna Biosciences, 09 145).
For semi-automated method, the ATP mixture was prepared at a concentration corresponding to 2.5 fold the final (most diluted) assay concentration of the semi-automated method and 1.5 fold the final (most diluted) assay concentration of the automated method. For example, for the semi-automated method, the ATP mixture was prepared by mixing water (4126 μL), assay buffer solution (1380 μL), and 10 mM ATP (13.80 μL).
The assay was performed either in a semi-automated or fully automated manner. The assay volume and the incubation time of the ADP detection were different accordingly the method used.
3.1.3.1. Semi-Automated Assay
The compounds were prepared as a serial dilution of 10 point dose responses with 1/5 dilution steps in 100% DMSO starting from 2 mM highest concentration, diluted 1/20 in water. 1 μL was transferred dry to the assay plates.
On each assay plate 32 wells of each control (positive & negative) were added, followed by 2 μL enzyme-substrate mixture.
The reaction was started by adding 2 μL diluted ATP (final concentration Km ATP) on the assay plates. Plates were centrifuged for a few seconds at 1000 rpm followed by an incubation at r.t. for 120 min.
The reactions were stopped and the unconsumed ATP was depleted by adding 5 μL ADP-glo Reagent (Promega, Cat #V9103) to the reaction. The plates were quickly centrifuged at 1000 rpm and incubated at r.t. for 40 min corresponding to full ATP depletion.
The ADP was converted back to ATP and luciferase and luciferin were introduced to detect ATP by adding 10 μL kinase detection reagent (Promega, Cat #V9103) to the reaction. The plates were centrifuged for a few seconds at 1000 rpm and incubated at r.t. for a further 30 min.
Luminescent read out was performed on an Envision luminescent reader (Perkin Elmer). […]

Mouse Hepatocyte = assay: Metabolic stability in hepatocytes (mouse); assay type: in vitro ADME; details: 1 μM test compound, cryopreserved mouse hepatocytes
Method: 4.6. Metabolic Stability in Hepatocytes
The aim of this assay is to determine the metabolic stability of the compound in hepatocytes (cryopreserved) of different species. Low hepatocyte stability may result in the formation of unwanted metabolites, high clearance, and therefore is not desirable.
The decrease in parent was assessed by measuring the percentage remaining by LC-MS/MS analysis.
A 10 mM stock solution of test compound in DMSO was first diluted in DMSO to 3 mM, and then in modified Krebs-Henseleit buffer (Sigma, K3753) to 5 μM. This compound dilution was added to a suspension of pooled cryopreserved hepatocytes (BioreclamationIVT) at 37° C. under gentle shaking.
Final reaction conditions were: 1 μM of test compound, 0.03% DMSO, 0.5 million viable hepatocytes/mL, and 75 μL incubation volume.
Testosterone (1 μM) and 7-hydroxycoumarin (1 μM) were used, respectively as phase I and phase II metabolic reaction controls.
After 0, 10, 20, 45, 90, 120 and 180 min of incubation, the reaction was terminated with 225 μL of MeCN:MeOH (2:1) containing 100 ng/mL of diclofenac as analytical internal standard. Samples were mixed, centrifuged and the supernatant analyzed by LC-MS/MS.
The instrument responses (ratios of test compound and internal standard peak areas) were referenced to the zero time point samples (considered as 100%) in order to determine the percentage of compound remaining.
Plots of percentage compound remaining were used to determine the intrinsic clearance in the hepatocyte incubations using the following equations:
Scaled Clint [L/h/kg]=Clint[μL/min/10^6 cells]*#(10^6) cells/g liver*60*( 1/10^6) Scaled Clint unbound [L/h/kg]=Clint [L/h/kg]/Fu,inc where: fu,inc equals hepatocyte binding, derived from microsomal binding (fu,mic) by following equation: […]

| Compound | IC50 (human IRAK-4) | Mouse Hepatocyte stability (Perc. remaining at 90 min) (Mouse Hepatocyte) |
| --- | --- | --- |
| CCOc1cn2nc(CCC(C)(C)O)cc2cc1NC(=O)c1cccn(C(F)F)c1=O [Compound 9, 1-(difluoromethyl)-N-[6-ethoxy-2-(3-hydroxy-3-methyl-butyl)pyrazolo[1,5-a]pyridin-5-yl]-2-oxo-pyridine-3-carboxamide] | 5 to 10 nM | 83.65 Perc. |
| COc1c(NC(=O)c2cccn(C3CC3)c2=O)cc2cc(CCC(C)(C)O)nn2c1C [Compound 13, 1-cyclopropyl-N-[2-(3-hydroxy-3-methyl-butyl)-6-methoxy-7-methyl-pyrazolo[1,5-a]pyridin-5-yl]-2-oxo-pyridine-3-carboxamide] | 10 to 50 nM | 87.8 Perc. |
| CNC(=O)c1cn2nc(C3CCN(C)CC3)cc2cc1NC(=O)c1cccc(C(F)(F)F)n1 [Compound 12, N-methyl-2-(1-methyl-4-piperidyl)-5-[[6-(trifluoromethyl)pyridine-2-carbonyl]amino]pyrazolo[1,5-a]pyridine-6-carboxamide] | 0.1 to 5 nM | 97.05 Perc. |
| CCOc1cn2nc(CCC(C)(C)O)cc2cc1NC(=O)c1cccn(C)c1=O [Compound 18, N-[6-ethoxy-2-(3-hydroxy-3-methyl-butyl)pyrazolo[1,5-a]pyridin-5-yl]-1-methyl-2-oxo-pyridine-3-carboxamide] | 0.1 to 5 nM | 93 Perc. |
| COc1cn2nc(CCC(C)(C)O)cc2cc1NC(=O)c1cccn(C2CC2)c1=O [Compound 1, 1-cyclopropyl-N-[2-(3-hydroxy-3-methylbutyl)-6-methoxypyrazolo[1,5-a]pyridin-5-yl]-2-oxopyridine-3-carboxamide] | 0.1 to 5 nM | 99.45 Perc. |
| COc1cn2nc(CC(F)C(C)(C)O)cc2cc1NC(=O)c1cccn(C2CC2)c1=O (single isomer, unassigned; enantiomer a) [Compound 25, 1-cyclopropyl-N-[2-(2-fluoro-3-hydroxy-3-methyl-butyl)-6-methoxy-pyrazolo[1,5-a]pyridin-5-yl]-2-oxo-pyridine-3-carboxamide Enantiomer A] | 0.1 to 5 nM | – |
| [2H]C([2H])([2H])Oc1cn2nc(CCC(C)(C)O)cc2cc1NC(=O)c1cccn(C2CC2)c1=O [Compound 24, 1-cyclopropyl-N-[2-(3-hydroxy-3-methylbutyl)-6-(trideuteriomethoxy)pyrazolo[1,5-a]pyridin-5-yl]-2-oxopyridine-3-carboxamide] | 0.1 to 5 nM | – |
| COc1cn2nc(CC(F)C(C)(C)O)cc2cc1NC(=O)c1cccn(C2CC2)c1=O (single isomer, unassigned; enantiomer b) [Compound 26, 1-cyclopropyl-N-[2-(2-fluoro-3-hydroxy-3-methyl-butyl)-6-methoxy-pyrazolo[1,5-a]pyridin-5-yl]-2-oxo-pyridine-3-carboxamide Enantiomer B] | 10 to 50 nM | – |
| COc1cn2nc(CC(F)C(C)(C)O)cc2cc1NC(=O)c1cccn(C2CC2)c1=O (stereo not drawn) [Compound 22, 1-cyclopropyl-N-[2-(2-fluoro-3-hydroxy-3-methyl-butyl)-6-methoxy-pyrazolo[1,5-a]pyridin-5-yl]-2-oxo-pyridine-3-carboxamide] | 0.1 to 5 nM | – |
| [2H]C([2H])([2H])C(O)(CCc1cc2cc(NC(=O)c3cccn(C4CC4)c3=O)c(OC)cn2n1)C([2H])([2H])[2H] [Compound 23, 1-cyclopropyl-N-[6-methoxy-2-[4,4,4-trideuterio-3-hydroxy-3-(trideuteriomethyl)butyl]pyrazolo[1,5-a]pyridin-5-yl]-2-oxo-pyridine-3-carboxamide] | 0.1 to 5 nM | – |

The next lines start with the values.

| IC50 (human IRAK-4) | Mouse Hepatocyte stability (Perc. remaining at 90 min) (Mouse Hepatocyte) | Compound |
| --- | --- | --- |
| 0.1 to 5 nM | – | CNC(=O)c1cn2nc(CCC(C)(C)O)cc2cc1NC(=O)c1cccc(C(F)F)n1 [Compound 19, 5-[[6-(difluoromethyl)pyridine-2-carbonyl]amino]-2-(3-hydroxy-3-methyl-butyl)-N-methyl-pyrazolo[1,5-a]pyridine-6-carboxamide] |
| 0.1 to 5 nM | 10.17 Perc. | COc1cn2nc(CCC(C)(C)O)cc2cc1NC(=O)c1cccc(C(F)(F)F)n1 [Compound 3, N-[2-(3-hydroxy-3-methylbutyl)-6-methoxypyrazolo[1,5-a]pyridin-5-yl]-6-(trifluoromethyl)pyridine-2-carboxamide] |
| 0.1 to 5 nM | – | CC(C)(O)CCc1cc2cc(NC(=O)c3cccc(C(F)(F)F)n3)c(C(N)=O)cn2n1 [Compound 4, 2-(3-hydroxy-3-methylbutyl)-5-[[6-(trifluoromethyl)pyridine-2-carbonyl]amino]pyrazolo[1,5-a]pyridine-6-carboxamide] |
| 0.1 to 5 nM | – | CNC(=O)c1cn2nc(C3CCOCC3)cc2cc1NC(=O)c1cccc(C(F)F)n1 [Compound 15, 5-[[6-(difluoromethyl)pyridine-2-carbonyl]amino]-N-methyl-2-tetrahydropyran-4-yl-pyrazolo[1,5-a]pyridine-6-carboxamide] |
| 0.1 to 5 nM | 93 Perc. | CCOc1cn2nc(CCC(C)(C)O)cc2cc1NC(=O)c1cccn(C2CC2)c1=O [Compound 17, 1-cyclopropyl-N-[6-ethoxy-2-(3-hydroxy-3-methyl-butyl)pyrazolo[1,5-a]pyridin-5-yl]-2-oxo-pyridine-3-carboxamide] |
| 0.1 to 5 nM | 75.15 Perc. | CNC(=O)c1cn2nc(C3CCCS(=O)(=O)C3)cc2cc1NC(=O)c1cccc(C(F)(F)F)n1 (stereo not drawn) [Compound 8, 2-(1,1-dioxothian-3-yl)-N-methyl-5-[[6-(trifluoromethyl)pyridine-2-carbonyl]amino]pyrazolo[1,5-a]pyridine-6-carboxamide] |
